Data taken from PubChem BioAssay AID2060509 (Molecular Pharmacology Branch, DTP, NCI, 2025).

Tested on: 485176-168-R4-J1-PDC spheroids with HUVEC/MSC, viability
Assay: Anticancer human tumor 485176-168-R4-J1-PDC patient-derived pancreatic adenocarcinoma cell line growth inhibition [GQUAD]
Details: for IC50: curve of first compound; for viability, T/C: stronger effect = lower value
Source text: DNA G-quadruplex Stabilizer Agents in Combinations in Complex Spheroids
A high-throughput screen of multi-cell type tumor spheroids was designed to identify active combinations of DNA G-quadruplex stabilizer agents and targeted small molecules. Complex spheroids include a stromal component modeled by human endothelial cells (HUVEC) and fibroblasts modeled by human mesenchymal stem cells (MSCs). The concentration ranges selected for each drug and investigational agent were based upon clinically achievable concentrations if the clinical Cmax of the agent was known.
Compounds. The drugs and investigational agents: pidnarulex (CX-5461; NSC782164), APTO-253 (NSC789042), BRACO-19 (NSC847499), peposertib (NSC802822), ceralasertib (NSC780249), elimusertib (NSC800525), camonsertib (NSC841442), AZD-1390 (NSC803789), olaparib (NSC753686), talazoparib (NSC767125), ART-558 (NSC835418), sotorasib (NSC818433), MRTX-1133 (NSC836407), SN-38 (NSC673596), topotecan (NSC609699), etoposide (NSC141540), doxorubicin (NSC123127), gemcitabine (NSC613327), 5-fluorouracil (NSC19893), paclitaxel (NSC125973), vemurafenib (NSC761431), panobinostat (NSC761190), R-306465 (JNJ-16241199; NSC773264), adavosertib (NSC754352), TP-3654 (NSC805149), carboplatin (NSC241240), KSQ-4279 (NSC840948), and staurosporine (NSC755774) were obtained from the National Cancer Institute (NCI) Developmental Therapeutics Program Chemical Repository (34). The FDA-approved anticancer drug set is available from the NCI Developmental Therapeutics Program. […] The stock solutions were prepared in dimethyl sulfoxide (DMSO, Sigma-Aldrich, St. Louis, MO, cat. D2650) at 800-fold the tested concentration and stored at -70 degrees C prior to their use. All drugs and investigational agents were tested over a range starting from a high concentration at or near the clinical Cmax and decreasing in half-log increments. If the clinical Cmax for an agent had not been determined, the highest concentration tested was 10 microM.
2.3 Cell Culture. All cells were maintained in an incubator at 37 degrees C and 5% CO2 with 95% humidity. The PDC lines were cultured according to standard operating procedures established by the NCI PDMR. All PDCs were thawed and cultured in Matrigel-coated flasks prepared with a working solution of 1X Ham's F-12 nutrient mix, without supplementation (Invitrogen, cat. 11765054), 100 U/mL penicillin-streptomycin (Invitrogen, cat. 15140122), and 2.5% Matrigel (Corning Inc., cat. 354248) for the first three passages. The 857933-349-R-J2-PDC line was cultured in 6C/Colon 1B media, which includes advanced DMEM/F-12 (Thermo Fisher Scientific, cat. 12634028), 10 mM HEPES (Thermo Fisher Scientific, cat. 15630080), 1X GlutaMAX supplement (Thermo Fisher Scientific, cat. 35050061), 0.1 mg/mL primocin (InvivoGen, cat. ant-pm-2), 10% defined fetal bovine serum, heat inactivated (HyClone Laboratories Inc., cat. SH30070.03HI), 50% L-WRN conditioned media (ATCC, cat. CRL-3276), 1.25 mM N-Acetyl-L-cysteine (Sigma-Aldrich, cat. A9165), 10 mM nicotinamide (Sigma-Aldrich, cat. N0636), 1X B-27 supplement (Thermo Fisher Scientific, cat. 17504044), 1X N-2 supplement (Thermo Fisher Scientific, cat. 17502048), 10 microM Y-27632 dihydrochloride (Tocris Bioscience, cat. 1254), and 50 ng/mL human EGF recombinant protein (Thermo Fisher Scientific, cat. PHG0311). The 485176-168-R4-J1-PDC line was cultured in Panc media, which includes all 6C/Colon 1B media components plus 100 ng/mL human FGF-10 (Thermo Fisher Scientific, cat. 100-26), 500 nM SB-431542 (Selleckchem, cat. S1067), and gastrin (Tocris, cat. 3006).
[…]

[1] = second compound 0.0316 µM, first compound 0.0316 µM
[2] = second compound 0.0316 µM, first compound 0.1 µM
[3] = second compound 0.0316 µM, first compound 0.316 µM
[4] = second compound 0.0316 µM, first compound 1 µM
[5] = second compound 0.0316 µM, first compound 3.16 µM
[6] = second compound 0.0316 µM, first compound 10 µM
[7] = second compound 0.1 µM, first compound 0.0316 µM
[8] = second compound 0.1 µM, first compound 0.1 µM
[9] = second compound 0.1 µM, first compound 0.316 µM
[10] = second compound 0.1 µM, first compound 1 µM
[11] = second compound 0.1 µM, first compound 3.16 µM
[12] = second compound 0.1 µM, first compound 10 µM
[13] = second compound 0.316 µM, first compound 0.0316 µM
[14] = second compound 0.316 µM, first compound 0.1 µM
[15] = second compound 0.316 µM, first compound 0.316 µM
[16] = second compound 0.316 µM, first compound 1 µM
[17] = second compound 0.316 µM, first compound 3.16 µM
[18] = second compound 0.316 µM, first compound 10 µM
[19] = second compound 1 µM, first compound 0.0316 µM
[20] = second compound 1 µM, first compound 0.1 µM
[21] = second compound 1 µM, first compound 0.316 µM
[22] = second compound 1 µM, first compound 1 µM
[23] = second compound 1 µM, first compound 3.16 µM
[24] = second compound 1 µM, first compound 10 µM
[25] = second compound 3.16 µM, first compound 0.0316 µM
[26] = second compound 3.16 µM, first compound 0.1 µM
[27] = second compound 3.16 µM, first compound 0.316 µM
[28] = second compound 3.16 µM, first compound 1 µM
[29] = second compound 3.16 µM, first compound 3.16 µM
[30] = second compound 3.16 µM, first compound 10 µM
[31] = second compound 10 µM, first compound 0.0316 µM
[32] = second compound 10 µM, first compound 0.1 µM
[33] = second compound 10 µM, first compound 0.316 µM
[34] = second compound 10 µM, first compound 1 µM
[35] = second compound 10 µM, first compound 3.16 µM
[36] = second compound 10 µM, first compound 10 µM
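Note: spheroids exposed to compounds for seven days before readout.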
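Throughout, for viability, T/C: percent viability relative to DMSO vehicle control wells as 100%.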

For `CC(C)n1c(=O)n(C)c2cnc3cc(F)c(-c4ccc(OCCCN5CCCCC5)nc4)cc3c21` + Cc1[nH]c2ccc(F)cc2c1-c1nc2c3cccnc3c3ncccc3c2[nH]1, the IC50 (second compound 0.0316 µM) was > 10000 nM, the IC50 (second compound 0.1 µM) was > 10000 nM and the IC50 (second compound 0.316 µM) was > 10000 nM. For the same compound, the IC50 (second compound 1 µM) was > 10000 nM, the IC50 (second compound 3.16 µM) was > 10000 nM and the IC50 (second compound 10 µM) was > 10000 nM. It also gave a viability, T/C [1] of 106%, a viability, T/C [2] of 78.3% and a viability, T/C [3] of 89.2%. For the same compound, the viability, T/C [4] was 87.8%, the viability, T/C [5] was 85.1% and the viability, T/C [6] was 71.2%. The viability, T/C [7] was 82.6%, the viability, T/C [8] was 103% and the viability, T/C [9] was 77.7%. It also gave a viability, T/C [10] of 95.6%, a viability, T/C [11] of 93.8% and a viability, T/C [12] of 99.2%. It also gave a viability, T/C [13] of 92%, a viability, T/C [14] of 82.8% and a viability, T/C [15] of 91.1%. The viability, T/C [16] was 88.7%, the viability, T/C [17] was 80.4% and the viability, T/C [18] was 85.2%. It also gave a viability, T/C [19] of 80.8%, a viability, T/C [20] of 89.6% and a viability, T/C [21] of 81.7%. For the same compound, the viability, T/C [22] was 84.3%, the viability, T/C [23] was 99.3% and the viability, T/C [24] was 77.2%. For the same compound, the viability, T/C [25] was 89.2%, the viability, T/C [26] was 82.4% and the viability, T/C [27] was 84.4%. The viability, T/C [28] was 85%, the viability, T/C [29] was 76.8% and the viability, T/C [30] was 64%. The viability, T/C [31] was 79.1%, the viability, T/C [32] was 78.8% and the viability, T/C [33] was 87.4%. It also gave a viability, T/C [34] of 76.5%, a viability, T/C [35] of 86% and a viability, T/C [36] of 64.6%.
`CC1COCCN1c1cc(C2(S(C)(=N)=O)CC2)nc(-c2ccnc3[nH]ccc23)n1` (stereo unspecified) + Cc1[nH]c2ccc(F)cc2c1-c1nc2c3cccnc3c3ncccc3c2[nH]1 was tested, and the IC50 (second compound 0.0316 µM) was 1350 nM, the IC50 (second compound 0.1 µM) was 1840 nM and the IC50 (second compound 0.316 µM) was 1830 nM. It also gave an IC50 (second compound 1 µM) of 1910 nM, an IC50 (second compound 3.16 µM) of 1260 nM and an IC50 (second compound 10 µM) of 1240 nM. The viability, T/C [1] was 110%, the viability, T/C [2] was 90.4% and the viability, T/C [3] was 97.8%. The viability, T/C [4] was 53.6%, the viability, T/C [5] was 32% and the viability, T/C [6] was 15.5%. For the same compound, the viability, T/C [7] was 89.4%, the viability, T/C [8] was 103% and the viability, T/C [9] was 85.5%. It also gave a viability, T/C [10] of 69.9%, a viability, T/C [11] of 32.7% and a viability, T/C [12] of 16.4%. The viability, T/C [13] was 88.3%, the viability, T/C [14] was 103% and the viability, T/C [15] was 84.8%. The viability, T/C [16] was 66.9%, the viability, T/C [17] was 35.2% and the viability, T/C [18] was 14.1%. The viability, T/C [19] was 92%, the viability, T/C [20] was 97.3% and the viability, T/C [21] was 96.5%. The viability, T/C [22] was 66.7%, the viability, T/C [23] was 36.4% and the viability, T/C [24] was 13.7%. It also gave a viability, T/C [25] of 83.5%, a viability, T/C [26] of 89.9% and a viability, T/C [27] of 75.5%. For the same compound, the viability, T/C [28] was 57.6%, the viability, T/C [29] was 24.7% and the viability, T/C [30] was 14.7%. For the same compound, the viability, T/C [31] was 84.7%, the viability, T/C [32] was 104% and the viability, T/C [33] was 80.9%. The viability, T/C [34] was 55.6%, the viability, T/C [35] was 26.4% and the viability, T/C [36] was 13.8%.
`CC1COCCN1c1cc(-c2ccnn2C)c2ccnc(-c3ccn[nH]3)c2n1` (stereo unspecified) + Cc1cnc(CNC(=O)c2c(=O)c3ccc(N4CCCN(C)CC4)nc3n3c2sc2ccccc23)cn1 was tested, and the IC50 (second compound 0.0316 µM) was < 31.6 nM, the IC50 (second compound 0.1 µM) was < 31.6 nM and the IC50 (second compound 0.316 µM) was < 31.6 nM. The IC50 (second compound 1 µM) was < 31.6 nM, the IC50 (second compound 3.16 µM) was < 31.6 nM and the IC50 (second compound 10 µM) was < 31.6 nM. It also gave a viability, T/C [1] of 40.6%, a viability, T/C [2] of 15.9% and a viability, T/C [3] of 12.9%. For the same compound, the viability, T/C [4] was 8.3%, the viability, T/C [5] was 10.7% and the viability, T/C [6] was 11.9%. For the same compound, the viability, T/C [7] was 22.2%, the viability, T/C [8] was 12.2% and the viability, T/C [9] was 7.9%. It also gave a viability, T/C [10] of 11.2%, a viability, T/C [11] of 10.8% and a viability, T/C [12] of 11.7%. The viability, T/C [13] was 18.2%, the viability, T/C [14] was 9.35% and the viability, T/C [15] was 8.47%. The viability, T/C [16] was 7.9%, the viability, T/C [17] was 10.6% and the viability, T/C [18] was 10.4%. The viability, T/C [19] was 12.6%, the viability, T/C [20] was 9.48% and the viability, T/C [21] was 9.86%. It also gave a viability, T/C [22] of 8.6%, a viability, T/C [23] of 11.5% and a viability, T/C [24] of 10.6%. It also gave a viability, T/C [25] of 15%, a viability, T/C [26] of 11.8% and a viability, T/C [27] of 10.1%. The viability, T/C [28] was 10.4%, the viability, T/C [29] was 9.56% and the viability, T/C [30] was 9.96%. For the same compound, the viability, T/C [31] was 16%, the viability, T/C [32] was 11% and the viability, T/C [33] was 9.84%. The viability, T/C [34] was 9.05%, the viability, T/C [35] was 9.12% and the viability, T/C [36] was 10.4%.
